Melting point data for 2 compounds are collected here from US6472392B1, “Triazole compounds and the use thereof as dopamine-D3 -ligands” (Abbott Laboratories, priority 1997, dated 2002).

Structures are written as SMILES.

What is called melting point is the temperature, or range, at which the solid turns liquid.

In turn, `Cn1c(C=CCCN2CCN(c3cc(C(C)(C)C)nc(C(C)(C)C)n3)CC2)nnc1-c1ccccc1` [Example 21, 3-{4-[4-(2,6-Di-t-butylpyrimidin-4-yl)piperazin-1-yl]but-1-enyl}-4-methyl-5-phenyl-1,2,4-(4H)-triazole] came in with a melting point of 156 to 161 °C. As for `Cn1c(CCCCN2CCN(c3cc(C(C)(C)C)nc(C(C)(C)C)n3)CC2)nnc1-c1ccccc1` [Example 22, 3-{4-[4-(2,6-Di-t-butylpyrimidin-4-yl)piperazin-1-yl]butyl}-4-methyl-5-phenyl-1,2,4-(4H)-triazole], the figure is 144 to 145 °C.
